Data from patent publication US20140343049A1, “DIHYDROFURAN DERIVATIVES AS INSECTICIDAL COMPOUNDS” (SYNGENTA PARTICIPATIONS AG, priority 2011, published 2014).

Experiments:
Assay type in all cases: in vivo
[1] = test system: Spodoptera littoralis (Egyptian cotton leafworm); assay: Spodoptera littoralis cotton leaf disc spray test; settings: foliar, 72 h, cotton leaf discs sprayed at 200 ppm, 5 L1 larvae, mortality, feeding behavior, growth regulation 3 days after treatment
Source text: Cotton leaf discs were placed on agar in a 24-well microtiter plate and sprayed with test solutions at an application rate of 200 ppm. After drying, the leaf discs were infested with 5 L1 larvae. The samples were checked for mortality, feeding behavior, and growth regulation 3 days after treatment (DAT).

[2] = test system: Heliothis virescens (tobacco budworm); assay: Heliothis virescens egg test on artificial diet; settings: 96 h, 200 ppm (concentration in well 18 ppm), eggs 0-24 h old, 4 days, egg mortality, larval mortality, growth regulation
Description: Eggs (0-24 h old) were placed in 24-well microtiter plate on artificial diet and treated with test solutions at an application rate of 200 ppm (concentration in well 18 ppm) by pipetting. After an incubation period of 4 days, samples were checked for egg mortality, larval mortality, and growth regulation.

[3] = test system: Plutella xylostella (diamond back moth); assay: Plutella xylostella L2 larvae test on artificial diet; settings: 144 h, 200 ppm (concentration in well 18 ppm), 6 days, larval mortality and growth regulation
Description: 24-well microtiter plate (MTP) with artificial diet was treated with test solutions at an application rate of 200 ppm (concentration in well 18 ppm) by pipetting. After drying, the MTPs were infested with L2 larvae (7-12 per well). After an incubation period of 6 days, samples were checked for larval mortality and growth regulation.

[4] = test system: Diabrotica balteata (corn root worm); assay: Diabrotica balteata L2 larvae test on artificial diet; settings: 120 h, 200 ppm (concentration in well 18 ppm), 5 days, larval mortality and growth regulation
Summary of the method: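 Artificial diet treated with test solution at 200 ppm or 12.5 ppm application rate (in-well concentration stated as 18 ppm), dried, then infested with 6-10 L2 larvae per well. Larval mortality and growth regulation scored after 5 days.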

[5] = test system: Myzus persicae (green peach aphid); assay: Myzus persicae (sachet) mixed population test; settings: 120 h, sucrose solution, application rate 12.5 ppm, mortality 5 days after infestation
Source text: Test compounds were applied by pipette into 24 well plates and mixed with Sucrose solution. The plates were closed with a stretched Parafilm. A plastic stencil with 24 holes is placed onto the plate and infested pea seedlings were placed directly on the Parafilm. The infested plate is closed with a gel blotting paper and another plastic stencil and then turned upside down. 5 days after infestation the samples were checked on mortality. Application rate: 12.5 ppm.

[6] = test system: Thrips tabaci (onion thrips); assay: Thrips tabaci sunflower leaf disc spray test; settings: foliar, 168 h, sunflower leaf discs sprayed at 200 ppm, mixed ages, mortality after 7 days
Description: Sunflower leaf discs were placed on agar in a 24-well microtiter plate and sprayed with test solutions at an application rate of 200 ppm. […] After drying, the leaf discs were infested with a thrip population of mixed ages. After an incubation period of 7 days, samples were checked for mortality.

[7] = test system: Tetranychus urticae (two-spotted spider mite); assay: Tetranychus urticae bean leaf disc spray test; settings: foliar, 192 h, bean leaf discs sprayed at 200 ppm, mixed ages, egg, larval and adult mortality 8 days later
Summary of the method: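 Leaf discs of bean on agar were sprayed at 200 ppm, dried, then infested with mixed-age mites. Egg, larval and adult mortality were scored 8 days later.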

Cc1cc(C2=CC(c3cc(Cl)cc(Cl)c3)(C(F)(F)F)OC2)ccc1C(=O)NCc1ccccc1F (stereo not shown) [Compound D10]
≥ 80%: pest or weed control at 200 ppm [1] | pest or weed control at 200 ppm [2] | pest or weed control at 200 ppm [3] | pest or weed control at 200 ppm [4] | pest or weed control at 12.5 ppm [5] | pest or weed control at 200 ppm [6] | pest or weed control at 200 ppm [7]

Cc1cc(C2=CC(c3cc(Cl)cc(Cl)c3)(C(F)(F)F)OC2)ccc1C(=O)NCc1ccccc1 (stereo not shown) [Compound D9]
≥ 80%: pest or weed control at 200 ppm [1] | pest or weed control at 200 ppm [2] | pest or weed control at 200 ppm [3] | pest or weed control at 12.5 ppm [5] | pest or weed control at 200 ppm [6] | pest or weed control at 200 ppm [7]

Cc1cc(C2=CC(c3cc(Cl)cc(Cl)c3)(C(F)(F)F)OC2)ccc1C(=O)NC1CSC1 (stereo not shown) [Compound A2]
≥ 80%: pest or weed control at 200 ppm [1] | pest or weed control at 200 ppm [2] | pest or weed control at 12.5 ppm [5] | pest or weed control at 200 ppm [6] | pest or weed control at 200 ppm [7]

Cc1nc(C2=CC(c3cc(Cl)cc(Cl)c3)(C(F)(F)F)OC2)ccc1C(=O)NC1C[S+]([O-])C1 (stereo not shown) [Compound C22]
≥ 80%: pest or weed control at 200 ppm [1] | pest or weed control at 200 ppm [2] | pest or weed control at 200 ppm [3] | pest or weed control at 200 ppm [4] | pest or weed control at 12.5 ppm [5] | pest or weed control at 200 ppm [6] | pest or weed control at 200 ppm [7]

Cc1cc(C2=CC(c3cc(Cl)cc(Cl)c3)(C(F)(F)F)OC2)ccc1C(=O)NCC1CSC1 (stereo not shown) [Compound A78]
≥ 80%: pest or weed control at 200 ppm [1] | pest or weed control at 200 ppm [2] | pest or weed control at 200 ppm [3] | pest or weed control at 200 ppm [4] | pest or weed control at 12.5 ppm [5] | pest or weed control at 200 ppm [6] | pest or weed control at 200 ppm [7]

Cc1cc(C2=COC(c3cc(Cl)cc(Cl)c3)(C(F)(F)F)C2)ccc1C(=O)N[C@@H]1CON(CC(F)(F)F)C1=O (stereo partly drawn) [Compound D25, 4-[2-(3,5-dichlorophenyl)-2-(trifluoromethyl)-3H-furan-4-yl]-2-methyl-N-[(4R)-3-oxo-2-(2,2,2-trifluoroethyl)isoxazolidin-4-yl]benzamide]
≥ 80%: pest or weed control at 200 ppm [1] | pest or weed control at 200 ppm [2] | pest or weed control at 200 ppm [3] | pest or weed control at 200 ppm [4] | pest or weed control at 12.5 ppm [5] | pest or weed control at 200 ppm [6] | pest or weed control at 200 ppm [7]

Cc1cc(C2=CC(c3cc(Cl)cc(Cl)c3)(C(F)(F)F)OC2)ccc1C(=O)NCCC1CSC1 (stereo not shown) [Compound A82]
≥ 80%: pest or weed control at 200 ppm [1] | pest or weed control at 200 ppm [2] | pest or weed control at 200 ppm [3] | pest or weed control at 200 ppm [4] | pest or weed control at 12.5 ppm [5] | pest or weed control at 200 ppm [6] | pest or weed control at 200 ppm [7]

CCCCNC(=O)c1ccc(C2=CC(c3cc(Cl)cc(Cl)c3)(C(F)(F)F)OC2)cc1C (stereo not shown) [Compound D3]
≥ 80%: pest or weed control at 12.5 ppm [5] | pest or weed control at 200 ppm [6] | pest or weed control at 200 ppm [7]
